Reference: PMC10893631, “Receptor-based pharmacophore modeling, molecular docking, synthesis and biological evaluation of novel VEGFR-2, FGFR-1, and BRAF multi-kinase inhibitors” (BMC Chemistry, 2024)
Where two headings read alike, the source gives them in different places.

Legend:
VEGFR-2 = target: T1, VEGFR-2 (Homo sapiens, UniProt P35968); test: VEGFR-2 kinase assay kit (BPS), Kinase-Glo Max luminescence; assay type: biochemical; conditions: VEGFR-2, single dose 10 µM, duplicate, mean ± SD
T1 construct: purchased BPS Biosciences 40325
T1 sequence (P35968 20-1356): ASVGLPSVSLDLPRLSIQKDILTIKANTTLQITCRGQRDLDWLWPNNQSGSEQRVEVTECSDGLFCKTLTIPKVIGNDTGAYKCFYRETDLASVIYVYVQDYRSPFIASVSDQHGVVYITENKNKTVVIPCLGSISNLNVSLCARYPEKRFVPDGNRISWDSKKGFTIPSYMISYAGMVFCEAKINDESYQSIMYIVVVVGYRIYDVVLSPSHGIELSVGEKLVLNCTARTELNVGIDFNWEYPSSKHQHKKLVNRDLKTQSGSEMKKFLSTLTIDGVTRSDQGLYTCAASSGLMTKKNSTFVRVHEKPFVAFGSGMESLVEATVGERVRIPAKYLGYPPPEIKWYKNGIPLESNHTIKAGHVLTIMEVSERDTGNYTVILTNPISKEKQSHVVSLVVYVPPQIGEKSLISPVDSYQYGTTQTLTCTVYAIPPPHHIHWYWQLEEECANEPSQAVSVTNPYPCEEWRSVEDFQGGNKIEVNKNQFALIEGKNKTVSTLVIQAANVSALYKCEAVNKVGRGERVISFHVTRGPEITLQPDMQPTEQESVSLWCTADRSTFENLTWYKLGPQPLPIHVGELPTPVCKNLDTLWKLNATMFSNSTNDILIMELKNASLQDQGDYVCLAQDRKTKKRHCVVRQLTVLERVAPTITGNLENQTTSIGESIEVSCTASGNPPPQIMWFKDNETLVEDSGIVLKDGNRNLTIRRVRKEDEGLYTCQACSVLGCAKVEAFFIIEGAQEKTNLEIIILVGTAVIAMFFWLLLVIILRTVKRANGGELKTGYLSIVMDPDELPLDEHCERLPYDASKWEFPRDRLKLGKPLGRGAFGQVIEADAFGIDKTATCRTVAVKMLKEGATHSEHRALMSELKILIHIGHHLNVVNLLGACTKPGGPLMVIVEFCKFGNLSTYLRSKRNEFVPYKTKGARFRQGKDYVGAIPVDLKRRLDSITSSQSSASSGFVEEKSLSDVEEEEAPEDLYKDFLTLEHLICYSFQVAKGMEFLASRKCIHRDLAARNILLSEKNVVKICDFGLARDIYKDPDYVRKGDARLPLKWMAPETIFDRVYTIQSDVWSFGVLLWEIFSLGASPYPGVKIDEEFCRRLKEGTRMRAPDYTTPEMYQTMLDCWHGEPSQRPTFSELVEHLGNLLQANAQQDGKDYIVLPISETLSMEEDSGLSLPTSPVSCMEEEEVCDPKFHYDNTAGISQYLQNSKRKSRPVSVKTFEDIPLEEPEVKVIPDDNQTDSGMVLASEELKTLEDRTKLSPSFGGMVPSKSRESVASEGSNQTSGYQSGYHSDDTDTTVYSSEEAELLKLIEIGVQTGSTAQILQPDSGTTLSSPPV

[1] = tested on: NCI panel of 60 tumor cell lines; test: NCI SRB growth inhibition, whole panel mean (single dose 10 µM / five-dose); assay type: cell-based, human; conditions: Homo sapiens
Summary of the method: (§1)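 Cells plated at 5000–40,000 cells/well by doubling time; time-zero plates TCA-fixed after 24 h. Compounds (DMSO stocks) added at five 10-fold or ½-log concentrations plus control. Adherent cells TCA-fixed, stained with 0.4% SRB in 1% acetic acid; percentage growth from Tz, C and Ti absorbances.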

MDA-MB-468 = test: NCI SRB growth inhibition (single dose 10 µM / five-dose); assay type: cell-based, human; conditions: Homo sapiens
Summary of the method: as §1

SF-295 = test: as above; assay type: cell-based, human; conditions: Homo sapiens
Summary of the method: as §1

UO-31 = test: as above; assay type: cell-based, human; conditions: Homo sapiens
Summary of the method: as §1

SK-MEL-5 = test: as above; assay type: cell-based, human; conditions: Homo sapiens
Summary of the method: as §1

NCI-H460 = test: as above; assay type: cell-based, human; conditions: Homo sapiens
Summary of the method: as §1

LOX IMVI = test: as above; assay type: cell-based, human; conditions: Homo sapiens
Summary of the method: as §1

DU-145 = test: as above; assay type: cell-based, human; conditions: Homo sapiens
Summary of the method: as §1

T-47D = test: as above; assay type: cell-based, human; conditions: Homo sapiens, T47D
Summary of the method: as §1

HL-60(TB) = test: as above; assay type: cell-based, human; conditions: Homo sapiens
Summary of the method: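 SRB protein stain of fixed cells; compounds tested at one dose (10 µM) or five serial dilutions (10-fold or ½ log), diluted from DMSO stock. Cells plated 24 h before dosing, with a time-zero plate fixed in TCA. Percent growth derived from Tz, control and test absorbances; TGI taken where Ti = Tz.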

NCI-H322M = test: as above; assay type: cell-based, human; conditions: Homo sapiens
Summary of the method: as §1

Question: Which results are given for `COc1cccc(C=NNC(=O)c2ccc3[nH]c(-c4ccc(Cl)cc4)nc3c2)c1O` [8r, 2-(4-Chlorophenyl)-N'-(2-hydroxy-3-methoxybenzylidene)-1H-benzo[d]imidazole-5-carbohydrazide]?
Answer: inhibition at 10 µM (VEGFR-2): 25.7 ± 1.87%; inhibition at 10 µM ([1]; mean over NCI 60 cell lines, > 100% = lethal effect, read-out: mean growth inhibition % (GI%)): > 100%; GI50 ([1]; mean over NCI cancer cell lines, five-dose): 3390 nM; inhibition at 10 µM ([1]; mean over NCI panel of 60 tumor cell lines, read-out: Mean growth inhibition %): > 100%; inhibition at 10 µM (MDA-MB-468; MDA-MB-468 (Breast cancer), 10 µM, read-out: GI%): > 100%; GI50 (MDA-MB-468; MDA-MB-468, Breast cancer, five-dose): 1440 nM; inhibition at 10 µM (SF-295; SF-295 (CNS cancer), 10 µM, read-out: GI%): > 100%; GI50 (SF-295; SF-295, CNS cancer, five-dose): 2200 nM; inhibition at 10 µM (UO-31; UO-31 (Renal cancer), 10 µM, read-out: GI%): > 100%; GI50 (UO-31; UO-31, Renal cancer, five-dose): 2070 nM; inhibition at 10 µM (SK-MEL-5; SK-MEL-5 (Melanoma), 10 µM, read-out: GI%): > 100%; GI50 (SK-MEL-5; SK-MEL-5, Melanoma, five-dose): 1340 nM; inhibition at 10 µM (NCI-H460; NCI-H460 (Non-small cell lung cancer), 10 µM, read-out: GI%): > 100%; GI50 (NCI-H460; NCI-H460, Non-small cell lung cancer, five-dose): 1350 nM; inhibition at 10 µM (LOX IMVI; LOX IMVI (Melanoma), 10 µM, read-out: GI%): > 100%; GI50 (LOX IMVI; LOX IMVI, Melanoma, five-dose): 1180 nM; inhibition at 10 µM (DU-145; DU-145 (Prostate cancer), 10 µM, read-out: GI%): > 100%; GI50 (DU-145; DU-145, Prostate cancer, five-dose): 1990 nM; inhibition at 10 µM (T-47D; T-47D (Breast cancer), 10 µM, read-out: GI%): > 100%; GI50 (T-47D; T-47D, Breast cancer, five-dose): 600 nM; inhibition at 10 µM (HL-60(TB); HL-60(TB) (Leukemia), 10 µM, read-out: GI%): > 100%; GI50 (HL-60(TB); HL-60(TB), Leukemia, five-dose): 1950 nM; inhibition at 10 µM (NCI-H322M; NCI-H322M (Non-small cell lung cancer), 10 µM, read-out: GI%): > 100%; GI50 (NCI-H322M; NCI-H322M, Non-small cell lung cancer, five-dose): 1590 nM
